How the values were obtained:
Type in all cases: cell-based, human
[1] = test system: A549 cells; experiment: MTT assay, metabolic activity of A549 cells; conditions: for IC50: Homo sapiens; for SI, selectivity index: 48 h, IC50 CCD-18Co / IC50 A549
Experimental: The effect of acridine-benzohydrazides (3a–3d) on the metabolic activity of the lung adenocarcinoma cell line (A549) and the normal colon fibroblast cell line (CCD-18Co) was evaluated using a 3-(4,5-dimethylthiazol-2-yl)-2,5-diphenyltertrazolium bromide (MTT) cell assay. This assay is based on the metabolization of yellow MTT to purple formazan crystal by mitochondrial dehydrogenases, and therefore only metabolic active cells are capable of that reaction. The CCD-18Co cell line was used as a control to check for derivatives selectivity. The doxorubicin belongs to a group of anthracyclines, which represent the chemotherapeutic regiments for the treatment of NSCLC (non-small cell lung carcinoma) even today, and acts as antineoplastic mainly by interaction with the DNA topoisomerase II and by creating DNA single- and double-strand breaks. Previous studies described detailed cytotoxic effects of doxorubicin in the human lung adenocarcinoma A549 cell line. Doxorubicin resembles our compounds in its biological action; therefore, it was employed as a positive control.
Human lung carcinoma cell line A549 and CCD-18Co colon fibroblasts were purchased from the American Type Culture Collection (ATCC, Rockville, MD, USA). The A549 cells were cultured in a complete RPMI-1640 medium (Sigma-Aldrich, St. Louis, MO, USA) and CCD-18Co cells were cultured in a minimum essential medium (MEM) (PAN-Biotech GmbH, Aidenbach, Germany) at 37 °C, 95% humidity and 5% CO2. The media were supplemented with 10% fetal bovine serum (FBS, Biosera, Nuaille, France) and antibiotics (1% Antibiotic-Antimycotic 100 × and 50 × 10^−3 g L^−1 gentamicin, Biosera). Prior to the selected treatments, cells were seeded on 6- and/or 96-well plates (TPP, Trasadingen, Switzerland) and left to settle for 24 h. The acridine compounds solutions (at concentrations ranging from 5–75 µM) were then added to cells for 24 or 48 h, and analysis was subsequently performed.
MTT assays were performed in order to evaluate changes in the metabolic activity of cells that had occurred as a consequence of treatment with the acridine compounds. A549 cells (15 × 10^3 cells/cm^2) and CCD-18Co (15.625 × 10^3 cells/cm^2) were seeded in 96-well microplates. The A549 cells were treated for 24 and 48 h, and the CCD-18Co cells were treated for 48 h with different concentrations (5, 25, 50 and 75 µM) of the derivatives. After the treatment, the MTT (3-(4,5-dimethylthiazol-2-yl)-2,5-diphenyltertrazolium bromide) solution in PBS (5 mg mL^−1) was added to each well. The reaction was stopped after 4 h incubation, and the formazan was dissolved by the addition of SDS at a final concentration of 3.3%. The absorbance of formazan (λ = 584 nm) was measured using a BMG FLUOstar Optima spectrometer (BMG Labtech GmbH, Offenburg, Germany). The results were evaluated as percentages of the absorbance of the untreated control. Results are presented as the average percentage of cells from three independent experiments. IC50 values for the derivatives were extrapolated from a sigmoidal fit (dose-response curve) to the metabolic activity data using OriginPro 8.5.0 SR1 (OriginLab Corp., Northampton, MA, USA).

[2] = test system: A549 cells; experiment: Quantification of cell number and viability (eosin staining, Bürker chamber); conditions: 50 μM, 48 h
Experimental: For the assessment of total cell numbers and viability within individual experimental groups, floating and adherent cells were harvested after treatment with the studied compounds and evaluated using a Bürker chamber with eosin staining. A549 cells were plated at a density of 135 × 10^3 cell/well into a 6-well plate and treated with different concentration of derivatives (25 and 50 µM) for 48 h. The total cell number was expressed as a percentage of the untreated control of the total cell number. Viability was expressed as a percentage of viable, eosin negative cells. The results are presented as the average percentage of cells from three independent experiments.

[3] = test system: A549 cells; experiment: Colony forming (clonogenic) assay; conditions: 48 h treatment, 7 days cultivation; for effect on ability of A549 cells to form new colonies: 25 μM; for reduction of clonogenic ability of A549 cells vs control: 50 μM
Experimental: To assess drug efficacy and prevent treatment failure, it is important to observe whether cancer cells may proliferate during the interval between treatments. The clonogenic assay evaluates the efficacy of new drugs by observation of reduced repopulation of cancer cells and cell survival after treatment. This assay is important to select eligible anticancer drug candidates. The clonogenic survival was analysed after treatment of A549 cells with the compounds 3a and 3c. DMSO (0.5%) was used as solvent control. A549 cells were treated with 3a and 3c in concentrations of 25 and 50 μM for 48 h. The cells were then counted, and 500 viable cells per well were seeded and cultivated for another seven days under standard conditions.
For the colony forming assay, floating and adherent cells were harvested together 48 h after treatment with the studied compounds (25 and 50 µM). The cells were then counted using a Bürker chamber with eosin staining and 500 viable cells per well were seeded in 6-well plates. After seven days of cultivation under standard conditions, the cells in the plates were fixed and stained with 1% methylene blue dye in methanol. Visualized colonies were scanned and counted by Image software, and the results were evaluated as percentages of the untreated control. The results are presented as the average percentage of colonies from three independent experiments.

[4] = test system: A549 cells; experiment: Cell cycle analysis by flow cytometry; conditions: 25 and 50 μM, 48 h
Experimental: For flow cytometric analysis of the cell cycle distribution, floating and adherent cells were harvested together 48 h after treatment with the compounds (25 and 50 µM), washed in cold PBS, fixed in cold 70% ethanol, and stored overnight at −20 °C. Prior to analysis, the cells were washed twice in PBS, resuspended in a staining solution (0.1% Triton X-100, 0.137 g L^−1 ribonuclease A and 0.02 g L^−1 propidium iodide (PI) and incubated in dark conditions at RT for 30 min. The DNA content was analysed using a BD FACSCalibur flow cytometer (Becton Dickinson, San Jose, CA, USA) with a 488 nm argon-ion excitation laser, and fluorescence was detected using a 585/42 nm band-pass filter (FL-2). ModFit 3.0 software (Verity Software House, Topsham, ME, USA) was used to generate DNA content frequency histograms and to quantify the percentage of cells in the individual cell cycle phases. The results are presented as the average ratio of cells in the individual phase to all cells from three independent experiments.

| IC50 ([1]; A549, 24 h) | IC50 ([1]; A549, 48 h) | Compound | decrease of viability of A549 cells vs control [2] | reduction of total cell number vs control [2] | effect on ability of A549 cells to form new colonies [3] | reduction of clonogenic ability of A549 cells vs control [3] | effect on cell cycle distribution [4] | SI, selectivity index [1] |
| --- | --- | --- | --- | --- | --- | --- | --- | --- |
| > 75 µM | 43 µM | O=C(N/N=C/c1cccc2cc3ccccc3nc12)c1ccccc1 [3a, N′-[(E)-(Acridin-4-yl)methylidene]benzohydrazide] | 34% | approximately 94% | did not significantly reduce | 72% | accumulation of cells in the G2/M phase |  |
| > 75 µM | 37 µM | O=C(N/N=C/c1cccc2cc3ccccc3nc12)c1ccc(F)cc1 [3b, N′-[(E)-Acridin-4-ylmethylidene]-4-fluorobenzohydrazide] |  |  |  |  |  | 0.22 |
| 73 µM | 45 µM | O=C(N/N=C/c1cccc2cc3ccccc3nc12)c1ccc(Cl)cc1 [3c, N′-[(E)-Acridin-4-ylmethylidene]-4-chlorobenzohydrazide] | 14% | ~91% | did not significantly reduce | 74% | accumulation of cells in the G2/M phase | 0.36 |
| > 75 µM | 55 µM | O=C(N/N=C/c1cccc2cc3ccccc3nc12)c1ccc(Br)cc1 [3d, N′-[(E)-Acridin-4-ylmethylidene]-4-bromobenzohydrazide] |  |  |  |  |  | 0.31 |
